According to patent publication US7439356B2, “Substituted indan derivatives” (AstraZeneca AB, priority 1997, dated 2008):

melting point: 248 to 249 °C
Structure (SMILES): CN1CCN(c2cccc3c2CC(C(=O)Nc2ccc(N4CCOCC4)cc2)C3)CC1 (stereo not shown) [Example 4, 4-(4-Methylpiperazin-1-yl)-N-(4-morpholinophenyl)indan-2-carboxamide]
